This note sets out measurements from patent publication US8426420B2, “Heterocyclic pyrazole-carboxamidesas P2Y12 antagonists” (Sanofi, priority 2007, dated 2013).

In general, IC50 refers to the concentration at which inhibition is half-maximal.

Test [1] has as its system human platelet rich plasma. As to the kind of experiment: Inhibition of human platelet aggregation, "Born"-method using single cuvettes. The following applies: 0.1 h, ADP-induced aggregation, 6 minutes. Type of test: cell-based. As for the experimental part: Inhibition of Human Platelet Aggregation
Alternatively to a binding assay which measures a compound's ability to bind to the P2Y12 receptor, the effect on cellular function was also determined. This ability of the compound was evaluated in two platelet aggregation assays: in 96-well plates and with the “Born”-method using single cuvettes.
Whole blood was collected from healthy volunteers using 20 ml syringes containing 2 ml of buffered Citrate. The anticoagulated whole blood was transferred into 15 ml polypropylene conical tubes (10 ml per tube). The tubes were centrifuged for 15 minutes at 340×g at RT without using the centrifuge brake. This procedure leads to a pellet of cellular components and a supernatant of platelet rich plasma (PRP). The PRP layer was collected from each tube and pooled for each donor. To avoid carry over of cellular components following centrifugation, approximately 5 ml of PRP was left in the tube. The platelet concentration was determined using a Coulter Counter.
The 15 ml tubes containing the pellet of cellular components were centrifuged again for 10 minutes at 1940×g. This pelleted out most particulate blood constituents remaining, leaving a layer of Platelet Poor Plasma (PPP). The PPP was collected for each donor. The PRP layer, previously set aside, was diluted with PPP to a final concentration of approximately 3×E8 platelets/ml with the PPP.
The human platelet aggregation assay is performed in single use cuvettes using the platelet aggregation profiler (PAP-4 or -8, Bio/Data corporation).
In the assay cuvette 4 μl of test compound at 100× final concentration in DMSO is mixed with 392 μl fresh PRP and incubated for 2 minutes at 37° C. with 1.200 rpm stirring. Following that incubation period, 4 μl of 250 μM ADP is added to the reaction mix. This addition of ADP is sufficient to induce aggregation in the absence of an inhibitor. After that aggregation is measured over 6 minutes at 37° C. with 1.200 rpm stirring. Results of the assay are expressed as % inhibition, and are calculated using maximum aggregation (Tmax) or area under curve (AUC) of the absorbance over 6 minutes.
The IC50 data of the above described platelet aggregation assay using human platelet rich plasma for exemplary compounds of the present invention are shown in table 3.

Test [2] concerns human platelet rich plasma. The test is described as follows: Inhibition of human platelet aggregation, 96-well assay. Type of test: cell-based. The following applies: Homo sapiens, Platelet, 20 min. Summed up: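 ADP-induced aggregation read as 650 nm absorbance every minute for 20 min at 37 °C, with shaking between reads. PRP (~3×E8 platelets/ml, diluted with PPP, ACD-A blood from healthy volunteers) was exposed to compound for 5 min before adding a 40 μM ADP stock (15 μl into 150 μl).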

Test [3] concerns the target human P2Y12 receptor (Homo sapiens, UniProt Q9H244). The test is described as follows: Human P2Y12 recombinant cell membrane binding assay with 33P 2MeS-ADP. The following applies: competition against 33P 2MeS-ADP, membranes of CHO cells with recombinant human P2Y12 receptor. A digest of the protocol: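 Competition binding against radiolabeled 2MeS-ADP (1.61 nM as added) on membranes from recombinant human P2Y12 CHO cells, 20 min RT after 15 min compound preincubation, pH 7.4. Filtration then scintillation counting; compounds tested in triplicate from 10 μM final, five-fold dilutions, curve fit with plate-defined min/max.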

Chain of human P2Y12 receptor (Q9H244 whole entry): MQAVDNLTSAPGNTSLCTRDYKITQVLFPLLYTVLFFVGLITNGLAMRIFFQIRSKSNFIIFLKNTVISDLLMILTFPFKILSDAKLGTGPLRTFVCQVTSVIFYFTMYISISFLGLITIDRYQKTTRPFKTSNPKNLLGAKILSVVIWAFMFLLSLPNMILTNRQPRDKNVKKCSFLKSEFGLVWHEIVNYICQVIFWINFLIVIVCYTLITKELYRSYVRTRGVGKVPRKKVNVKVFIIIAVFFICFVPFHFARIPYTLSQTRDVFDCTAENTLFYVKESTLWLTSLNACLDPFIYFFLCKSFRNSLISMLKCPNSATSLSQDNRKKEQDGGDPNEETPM

As to `CCOC(=O)N1CCN(C(=O)[C@H](CCC(=O)O)NC(=O)c2cc(OCC(=O)N3CCC[C@H]3C(=O)NCC3CC3)n(-c3ccccc3)n2)CC1` [Example 16, 4-{(S)-4-Carboxy-2-[(5-{2-[(S)-2-(cyclopropylmethyl-carbamoyl)-pyrrolidin-1-yl]-2-oxo-ethoxy}-1-phenyl-1H-pyrazole-3-carbonyl)-amino]-butyryl}-piperazine-1-carboxylic acid ethyl ester], in test [1], the 50% inhibitory concentration (IC50) came to 46 nM.
For the compound `CCCCOC(=O)N1CCN(C(=O)[C@H](CCc2nn[nH]n2)NC(=O)c2cc(OCC(=O)N3CCC[C@H]3C(=O)NC3CCC3)n(-c3ccccc3)n2)CC1` [Example 126, 4-[(S)-2-({5-[2-((S)-2-Cyclobutylcarbamoyl-pyrrolidin-1-yl)-2-oxo-ethoxy]-1-phenyl-1H-pyrazole-3-carbonyl}-amino)-4-(2H-tetrazol-5-yl)-butyryl]-piperazine-1-carboxylic acid butyl ester], the IC50 in test [1] was 79 nM; in test [2] it was 50 nM.
Take `CCCCOC(=O)N1CCN(C(=O)[C@H](CCC(=O)O)NC(=O)c2cc(OCC(=O)N3CCC[C@H]3C(=O)NC3CCC3)n(-c3ccccc3)n2)CC1` [Example 119, 4-[(S)-4-Carboxy-2-({5-[2-((S)-2-cyclobutylcarbamoyl-pyrrolidin-1-yl)-2-oxo-ethoxy]-1-phenyl-1H-pyrazole-3-carbonyl}-amino)-butyryl]-piperazine-1-carboxylic acid butyl ester]: the values for the IC50 in test [1] and in test [2] were 13 nM and 20 nM, respectively.
With `CCOC(=O)N1CCN(C(=O)[C@H](CCC(=O)O)NC(=O)c2cc(O[C@@H](C)C(=O)N3CCC[C@H]3C(=O)NC3CCC3)n(-c3ccccc3)n2)CC1` [Example 67, 4-[(S)-4-Carboxy-2-({5-[(S)-2-((S)-2-cyclobutylcarbamoyl-pyrrolidin-1-yl)-1-methyl-2-oxo-ethoxy]-1-phenyl-1H-pyrazole-3-carbonyl}-amino)-butyryl]-piperazine-1-carboxylic acid ethyl ester], the IC50 is 950 nM in test [1] and 110 nM in test [2].
On to `CCCCNC(=O)[C@@H]1CCCN1C(=O)COc1cc(C(=O)N[C@@H](CCC(=O)O)C(=O)N2CCN(C(=O)OCC)CC2)nn1-c1ccccc1` [Example 11, 4-{(S)-4-Carboxy-2-[(5-{2-[(S)-2-butylcarbamoyl-pyrrolidin-1-yl]-2-oxo-ethoxy}-1-phenyl-1H-pyrazole-3-carbonyl)-amino]-butyryl}-piperazine-1-carboxylic acid ethyl ester], for which the IC50 in test [1] was 120 nM; in test [2], 30 nM.
Regarding `CCCCOC(=O)N1CCN(C(=O)[C@H](CF)NC(=O)c2cc(OCC(=O)N3CCC[C@H]3C(=O)NC3CCC3)n(-c3ccccc3)n2)CC1` [Example 262, 4-[(R)-2-({5-[2-((S)-2-Cyclobutylcarbamoyl-pyrrolidin-1-yl)-2-oxo-ethoxy]-1-phenyl-1H-pyrazole-3-carbonyl}-amino)-3-fluoro-propionyl]-piperazine-1-carboxylic acid butyl ester], the IC50 in test [1] stood at 40 nM; in test [2], 30 nM.
For `CCOC(=O)N1CCN(C(=O)CNC(=O)c2cc(OCC(=O)N3CCC[C@H]3C(=O)NC3CCC3)n(-c3ccccc3)n2)CC1` [Example 181, 4-[2-({5-[2-((S)-2-Cyclobutylcarbamoyl-pyrrolidin-1-yl)-2-oxo-ethoxy]-1-phenyl-1H-pyrazole-3-carbonyl}-amino)-acetyl]-piperazine-1-carboxylic acid ethyl ester] the same measures were 100 nM and 90 nM.
With `CCOC(=O)N1CCN(C(=O)[C@H](CC(O)CO)NC(=O)c2cc(OCC(=O)N3CCC[C@H]3C(=O)NC3CCC3)n(-c3ccccc3)n2)CC1` (stereo partly drawn) [Example 117, 4-[(S)-2-({5-[2-((S)-2-Cyclobutylcarbamoyl-pyrrolidin-1-yl)-2-oxo-ethoxy]-1-phenyl-1H-pyrazole-3-carbonyl}-amino)-4,5-dihydroxy-pentanoyl]-piperazine-1-carboxylic acid ethyl ester], it took 220 nM to reach half-maximal inhibition in test [1] (IC50).
For the compound `CCOC(=O)CC[C@H](NC(=O)c1cc(OCC(=O)N2CCC[C@H]2C(=O)NC2CCC2)n(-c2ccccc2)n1)C(=O)N1CCN(C(=O)OCC)CC1` [Example 127, 4-[(S)-2-({5-[2-((S)-2-Cyclobutylcarbamoyl-pyrrolidin-1-yl)-2-oxo-ethoxy]-1-phenyl-1H-pyrazole-3-carbonyl}-amino)-4-ethoxycarbonyl-butyryl]-piperazine-1-carboxylic acid ethyl ester], the IC50 in test [3] was 37 nM; in test [2], 440 nM.
As for `CCCOC(=O)N1CCN(C(=O)[C@@H](C)NC(=O)c2cc(OCC(=O)N3CCC[C@H]3C(=O)NC3CCC3)n(-c3ccccc3)n2)CC1` [Example 206, 4-[(R)-2-({5-[2-((S)-2-Cyclobutylcarbamoyl-pyrrolidin-1-yl)-2-oxo-ethoxy]-1-phenyl-1H-pyrazole-3-carbonyl}-amino)-propionyl]-piperazine-1-carboxylic acid propyl ester], the results for the IC50 in test [3] and in test [2] were 187 nM and 410 nM, respectively.
With `CCOC(=O)N1CCN(C(=O)[C@H](CCNC(C)=O)NC(=O)c2cc(OCC(=O)N3CCC[C@H]3C(=O)NC3CCC3)n(-c3ccccc3)n2)CC1` [Example 92, 4-[(S)-4-Acetylamino-2-({5-[2-((S)-2-cyclobutylcarbamoyl-pyrrolidin-1-yl)-2-oxo-ethoxy]-1-phenyl-1H-pyrazole-3-carbonyl}-amino)-butyryl]-piperazine-1-carboxylic acid ethyl ester], the IC50 in test [3] stood at 109 nM; in test [2] it was 1130 nM.
As to `CCOC(=O)N1CCN(C(=O)[C@H](CCC(=O)OCOC(=O)C(C)(C)C)NC(=O)c2cc(OCC(=O)N3CCC[C@H]3C(=O)NC3CCC3)n(-c3ccccc3)n2)CC1` [Example 139, 4-[(S)-2-({5-[2-((S)-2-Cyclobutylcarbamoyl-pyrrolidin-1-yl)-2-oxo-ethoxy]-1-phenyl-1H-pyrazole-3-carbonyl}-amino)-4-(2,2-dimethyl-propionyloxymethoxycarbonyl)-butyryl]-piperazine-1-carboxylic acid ethyl ester], the IC50 in test [3] is 56 nM; in test [2], 360 nM.
Consider `CCOC(=O)N1CCN(C(=O)[C@H](CCC(=O)O)NC(=O)c2cc(OCC(=O)N3CCC[C@H]3C(=O)NCC3CC3)n(-c3cccc(F)c3)n2)CC1` [Example 74, 4-((S)-4-Carboxy-2-{[5-[2-((S)-2-cyclopropylmethylcarbamoyl-pyrrolidin-1-yl)-2-oxo-ethoxy]-1-(3-fluoro-phenyl)-1H-pyrazole-3-carbonyl]-amino}-butyryl)-piperazine-1-carboxylic acid ethyl ester], for which the IC50 in test [3] came to 182 nM; in test [2] it was 260 nM.
On to `CCOC(=O)N1CCN(C(=O)[C@H](CCC(=O)OC)NC(=O)c2cc(OCC(=O)N3CCC[C@H]3C(=O)NC3CCC3)n(-c3ccccc3)n2)CC1` [Example 136, 4-[(S)-2-({5-[2-((S)-2-Cyclobutylcarbamoyl-pyrrolidin-1-yl)-2-oxo-ethoxy]-1-phenyl-1H-pyrazole-3-carbonyl}-amino)-4-methoxycarbonyl-butyryl]-piperazine-1-carboxylic acid ethyl ester], for which the IC50 in test [3] is 39 nM; in test [2] it was 260 nM.
For the compound `O=C(NCC(=O)N1CCN(C(=O)OC2CCCC2)CC1)c1cc(OCC(=O)N2CCC[C@H]2C(=O)NC2CCC2)n(-c2ccccc2)n1` [Example 268, 4-[2-({5-[2-((S)-2-Cyclobutylcarbamoyl-pyrrolidin-1-yl)-2-oxo-ethoxy]-1-phenyl-1H-pyrazole-3-carbonyl}-amino)-acetyl]-piperazine-1-carboxylic acid cyclopentyl ester], the values for the IC50 in test [3] and in test [2] were 99 nM and 20 nM, respectively.
Turning to `CCOC(=O)N1CCN(C(=O)[C@H](C)NC(=O)c2cc(OCC(=O)N3CCC[C@H]3C(=O)NC3CCC3)n(-c3ccccc3)n2)CC1` [Example 185, 4-[(S)-2-({5-[2-((S)-2-Cyclobutylcarbamoyl-pyrrolidin-1-yl)-2-oxo-ethoxy]-1-phenyl-1H-pyrazole-3-carbonyl}-amino)-propionyl]-piperazine-1-carboxylic acid ethyl ester], half-maximal inhibition in test [1] (IC50) required 90 nM.
